Experimental data: the SangsterLogP compilation

Assay: method code SF-AS, from DOI: 10.2298/ciceq100329044p
Conditions: pH 7.4

| Compound | logD |
| --- | --- |
| Cc1nc2ccccc2n1C(=O)c1ccccc1 | 3.38 |
| Cc1ccc(Cn2c(C)nc3ccccc32)cc1 | 4.01 |
| Cc1nc2ccccc2n1Cc1ccccc1 | 3.51 |
| Cc1nc2ccccc2n1C(=O)c1ccc(Cl)cc1 | 3.95 |
| Nc1nc2ccccc2n1C(=O)c1ccc(Cl)cc1 | 3.45 |
| Cc1nc2ccccc2n1Cc1ccc(Cl)cc1 | 4.07 |
| Nc1nc2ccccc2n1C(=O)c1ccccc1 | 2.9 |
| Cc1ccc(C(=O)n2c(N)nc3ccccc32)cc1 | 3.35 |
| Cc1ccc(C(=O)n2c(C)nc3ccccc32)cc1 | 3.87 |
